The values below come from patent US8114892B2, “Methods and compositions for the treatment of Parkinson's Disease” (The McLean Hospital Corporation, priority 2006, dated 2012).

Molecules are shown by their SMILES. “Also recorded” adds a separate entry of the source.

Common to all, as to format: cell-based
In one test the target is T1, GAL4 DBD-Nurr1 LBD (Homo sapiens, UniProt P43354).
T1 construct: expressed in transfected cells; host or cells: SK-N-BE(2)C cells, transient transfection
The test is described as follows: Secondary screening: GAL4-DBD construct fused with Nurr1-LBD, luciferase reporter in SK-N-BE(2)C cells. As to conditions: incubation for eighteen hours. The protocol:
FIG. 7 includes a chart showing secondary screening data with primary hit chemicals. Transiently expressed Nurr1 activity in SK-N-BE(2)C cells was measured by luciferase activity after incubation of each compound with GAL4-DBD construct fused with Nurr1-LBD for eighteen hours. […] Also shown is a schematic representation of the GAL4-DBD-Nurr1-LBD fusion construct activating the firefly luciferase reporter gene.
As a secondary screening system, GAL4 DNA binding domain (DBD) constructs were used, which separately fused whole Nurr1, Nurr1-ligand binding domain (LBD), or Nurr1-DNA binding domain to the yeast GAL4 DBD. […] 6-MP, regulating Nurr1 through a region in the amino terminus, was used as a negative control in this experiment.

A further test addresses T2, Nurr1 (Homo sapiens, UniProt P43354).
T2 construct: effector plasmid containing the Nurr1 gene; expressed in transfected cells; host or cells: SK-N-BE(2)C human neuroblastoma cells, transient transfection
The test is described as follows: Primary screening: Nurr1 effector with 2.6-TH promoter firefly luciferase reporter, transient transfection in SK-N-BE(2)C cells. As to conditions: incubation for eighteen hours; for Hit identification in repeated primary screening (luciferase activity): pcDNA-Nurr1 construct. How it is done: FIG. 5A is a chart showing preliminary screening data with a small chemical library. Transiently expressed Nurr1 activity in SK-N-BE(2)C cells was measured by luciferase activity with 2.6-TH promoter after incubation with each compound for eighteen hours. […] Each column has eight different chemical compounds. FIG. 5B is a chart showing further preliminary screening data with a small chemical library. Transiently expressed Nurr1 activity in SK-N-BE(2)C cells was measured by luciferase activity with 2.6-TH promoter after incubation with each compound for eighteen hours. […] Each column has eight different chemical compounds.
Transiently expressed Nurr1 activity in SK-N-BE(2)C cells was measured by luciferase activity after incubation of each compound with the pcDNA-Nurr1 construct for eighteen hours.
A cell-based system exploiting Nurr1's activation of TH was created in order to develop an assay for identification of Nurr1-activating compounds. […] In addition, a transient transfection was selected, rather than using stable cell-line transfection, to favor the maximum responsiveness of compounds to the reporter gene in order to detect low-affinity hit chemicals in the first screening. Another parameter considered was the selection of short-sized natural TH promoters with all essential NBRE (Nurr1-binding)-like motifs rather than one specific kind of NBRE-motif, based on the assumption that the natural promoter generates closer biological screening condition than artificially copied promoter and the false positive chemicals due to the interaction of other unrelated transcription factors can be easily ruled out by the effective secondary screening method.
To explore this new Nurr1 cell based assay system, several combinations of variable parameters, including effector gene promoter, internal control gene promoter, TH promoter size, promoter of internal control gene, transient transfection condition, serum concentration, and DMSO effect were tried. […]
On the technique in general: Reporter assays use an easily measured gene product as a stand-in for the process of interest.

Test [1] deals with mouse ES cell-derived neurons (ES cell lines D3 and J1). The test can be described thus: Dopaminergic neuronal differentiation of ES cells in vitro (5-stage method), TH+/Tuj1+ immunostaining. The following applies: 2 uM added at day five of the ES-derived neuronal stage for four days. An excerpt: FIG. 10A is a pair of photos showing embryonic stem (ES) cell-derived neurons subjected to an indirect immunohistochemical assay (TH+/Tuj1+ staining). ES-derived neurons were immunolabeled with anti-β-tubulin III and anti-TH. Superposition of both proteins under a fluorescent microscope is shown in white. DMSO was used as a control.
For in vitro differentiation of ES cells, we used the 5-stage method, which is known in the art (see, e.g., Lee et al., Nat. Biotechnol. 18:675-679, 2000) and is useful for distinguishing each stage of developmental progression of ES cells. The mouse blastocyst-derived ES cell lines D3 and J1 were propagated and maintained according to methods well-known in the art (see, e.g., Deacon et al., Exp. Neurol., 149:28-41, 1998, and Chung et al., Stem Cells, 20:139-145, 2002). The mouse ES cells were generated as embryoid bodies (EBs) on nonadherent bacterial dishes for four days in growth medium consisting of DMEM supplemented with 2 mM L-glutamine, 0.001% β-mercaptoethanol, 1× non-essential amino acids (all from Invitrogen), and 10% FBS (Hyclone). The EBs were then plated onto adhesive tissue culture dish surfaces. After 24 hours in culture, selection of nestin-positive cells was performed in serum-free ITSFn medium. […]

T1 sequence (P43354 360-595 limits assumed): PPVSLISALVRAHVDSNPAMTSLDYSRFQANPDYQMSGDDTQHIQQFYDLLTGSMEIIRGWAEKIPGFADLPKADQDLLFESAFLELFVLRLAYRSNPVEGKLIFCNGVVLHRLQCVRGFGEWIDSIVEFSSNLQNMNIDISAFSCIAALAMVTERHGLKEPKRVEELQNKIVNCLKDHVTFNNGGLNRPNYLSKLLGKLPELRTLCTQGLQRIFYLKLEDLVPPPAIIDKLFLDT
T1 sequence (P04386 1-147 partner limits assumed): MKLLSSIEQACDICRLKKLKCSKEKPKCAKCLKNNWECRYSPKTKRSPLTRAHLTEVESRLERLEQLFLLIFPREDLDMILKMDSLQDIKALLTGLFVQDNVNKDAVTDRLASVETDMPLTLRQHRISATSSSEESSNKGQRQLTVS
T2 sequence (P43354 whole entry): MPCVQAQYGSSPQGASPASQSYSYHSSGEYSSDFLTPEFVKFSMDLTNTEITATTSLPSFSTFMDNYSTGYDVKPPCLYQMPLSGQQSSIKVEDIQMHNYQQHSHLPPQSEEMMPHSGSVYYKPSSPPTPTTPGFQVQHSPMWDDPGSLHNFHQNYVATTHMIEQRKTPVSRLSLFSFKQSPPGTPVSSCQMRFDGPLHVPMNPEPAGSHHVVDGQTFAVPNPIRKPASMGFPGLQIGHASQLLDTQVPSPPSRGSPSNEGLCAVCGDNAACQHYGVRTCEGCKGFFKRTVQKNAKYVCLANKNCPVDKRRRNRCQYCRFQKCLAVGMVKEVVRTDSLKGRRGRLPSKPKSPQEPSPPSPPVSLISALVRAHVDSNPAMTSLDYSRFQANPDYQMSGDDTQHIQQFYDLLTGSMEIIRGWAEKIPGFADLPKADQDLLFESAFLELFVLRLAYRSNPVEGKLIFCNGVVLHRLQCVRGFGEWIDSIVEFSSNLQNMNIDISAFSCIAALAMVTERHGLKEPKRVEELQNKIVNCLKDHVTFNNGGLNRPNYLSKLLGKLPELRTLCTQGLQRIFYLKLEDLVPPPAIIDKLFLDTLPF

Regarding `CCN(CC)Cc1cc(Nc2ccnc3cc(Cl)ccc23)ccc1O` [Amodiaquine (4E), amodiaquine], the “Hit identification in secondary screening (luciferase activity)” value at GAL4 DBD-Nurr1 LBD (listed as Amodiaquine) is “identified as hit candidate compounds”; at GAL4 DBD-Nurr1 LBD (listed as amodiaquine) it was “hit candidates”. For the same molecule, the “Hit identification in repeated primary screening (luciferase activity)” value on Nurr1 is given as “hit candidates”. Moreover, the “Number of TH+ cells during in vitro ES cell differentiation, in comparison with the control DMSO” value in test [1] is “increased the number of TH+ cells”.

In the case of `CCN(CC)CCCC(C)Nc1ccnc2cc(Cl)ccc12` (stereo not shown) [Chloroquine diphosphate, chloroquine diphosphate], the “Luciferase activity compared to control with DMSO, preliminary screening” value on Nurr1 (2.6-TH promoter) was “apparent increase in luciferase activity”.

As for `O=C(OCC(O)CO)c1ccccc1Nc1ccnc2cc(Cl)ccc12` (stereo not shown) [Glafenine (11D), glafenine], on GAL4 DBD-Nurr1 LBD, the “Hit identification in secondary screening (luciferase activity)” value is recorded as “identified as hit candidate compounds; also recorded: hit candidates”. For the same molecule, the “Hit identification in repeated primary screening (luciferase activity)” value on Nurr1 is given as “hit candidates”.
